Reference: patent US7022680B2, “Inhibitors of ADP-ribosyl transferases, cyclases, and hydrolases” (Albert Einstein College of Medicine of Yeshiva University, priority 2002, dated 2006)
Several values for one entry are separate records, joined by “and”; a condition that tells them apart may be missing. Equal entries are not always repeated.

Tests used:
[1] = Solution hydrolysis of the inhibitor; type: physicochemical; details: 10 mM potassium phosphate, pH 6.5, 25° C.
Source text: Without being bound to any particular mechanism, it is believed that the electron-contributing moiety on A stabilizes the compounds of the invention such that they are less susceptible to hydrolysis from the rest of the compound. For example, the compound β-1′-5-methyl-nicotinamide-2′-deoxyribose (established as an effective inhibitor of CD38 in the Example) was compared with β-1′-nicotinamide-2′-deoxyribose in its ability to resist solution hydrolysis. […] This difference in chemical stability means that β-1′-nicotinamide-2′-deoxyribose is 50% depleted from solution in 2 hours, whereas β-1′-5-methyl-nicotinamide-2′-deoxyribose is not hydrolyzed by 50% until 12 hours. This improved chemical stability improves the value of the compound, since it is available for action for longer periods of time in biological systems due to resistance to hydrolytic breakdown.

human CD38 [2] = molecular target: T1, human CD38 (Homo sapiens, UniProt P28907); test: Off-rate / recovery of inhibited CD38 in excess NGD+; type: biochemical; parameters: The soluble domain of human CD38 catalyzes the conversion of NAD^+ to cyclic-ADP-ribose; details: inhibited CD38 added to excess NGD+, 19° C.; for koff: read-out: koff, rate constant of recovery from inhibition
T1 sequence (P28907 43-300 limits assumed): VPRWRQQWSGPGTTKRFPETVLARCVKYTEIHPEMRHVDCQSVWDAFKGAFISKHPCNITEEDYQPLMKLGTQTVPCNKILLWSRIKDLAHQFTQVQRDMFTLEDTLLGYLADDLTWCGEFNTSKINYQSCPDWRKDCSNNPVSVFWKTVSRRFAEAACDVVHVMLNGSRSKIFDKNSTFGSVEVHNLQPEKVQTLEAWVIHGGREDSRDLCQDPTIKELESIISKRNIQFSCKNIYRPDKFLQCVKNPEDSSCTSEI
Protocol: Off-Rate Measurement. 500 nM CD38 in 50 mM potassium phosphate pH 7.2 was incubated with 15 μM inhibitor for 30 min at room temperature. 5 μL of the enzyme inhibitor solution was added to a cuvette containing 1 mL reaction of 50 mM potassium phosphate pH 7.5 containing 300 μM NGD^+ pre-chilled to 19° C. Production of […] was determined by monitoring 295 nm absorbance. The absorbance was fit to the equation A(t)=vt+(b−v)(1−exp(−kt))/k+A0 where A(t) is the absorbance, k is the rate constant of recovery, b is the initial rate, v is the final rate and A0 is the initial absorbance. A control lacking inhibitor but in all other respects identical was also run.
Recovery from Inhibition. […] The inhibitor off-rate provides the final parameter in the equation koff/kon*Ki=Ki(total) which is valid for the kinetic scheme of slow-onset inhibition shown in Scheme 5. This rate was obtained by a recovery protocol in which inhibited CD38 enzyme (by either 1 or 2) was added to a 200 μM solution of NGD^+. The solution 295 nm absorbance is monitored spectrophotometrically to assay conversion of NGD^+ to cGDPR as a consequence of regain of CD38 catlytic activity. […] The absorbance curves with the same equation used for slow-onset: At=vit+(vi−vf)(1−exp(−kt))/k+A0 where At is absorbance, vi is initial velocity, vf is final velocity, t is time in s, k is the rate of the recovery rate constant and A0 is the absorbance of the sample at initial time. The rate constant for the recovery phase was obtained from the average value of k determined from the separate fits. The value of koff for 1 was determined to be 1.5×10^−5 s^−1 and for 2 was determined to be 2.5×10^−5 S^−1.

human CD38 [3] = molecular target: T1, human CD38; test: Competitive and slow-onset inhibition of CD38-catalyzed conversion of NGD+ to cGDPR (295 nm absorbance); type: biochemical; parameters: The soluble domain of human CD38 catalyzes the conversion of NAD^+ to cyclic-ADP-ribose; details: even at millimolar concentrations (data not shown)
Protocol: Determination of Ki and kon by competitive method. To 1 mL solutions of 50 mM potassium phosphate pH 7.2 and 100 μM NGD^+ containing, 50, 25, 12.5, and 6.25 and 0 μM inhibitor 1 was added 2 μL of 7 μM CD38. Reaction progress upon initiation by enzyme addition was monitored by measurement of 295 nm absorbance. The initial slopes were used to determine the Ki value, and all points of the experiment were fit to the equation A(t)=vt+(b−v)(1−exp(−kt))/k+A0 where k is the observed rate constant, b is the initial rate, v is the final rate and A0 is the initial absorbance was used to evaluate kon.
Determination of Competitive Inhibition by Initial Rates: The inhibitors 1–3 were evaluated for inhibition of CD38 enzymatic activity using a spectrophotometric assay. CD38 catalyzes the conversion of NGD^+ to cyclic-GDP ribose (cGDPR, Scheme 4) and product formation can be monitored by 295 nm absorbance measurement. […] A similar reaction containing 40 μM NGD^+ at several concentrations of 2 was also performed (FIG. 3).
Slow Phase Inhibition. […] This slow phase was not due to substrate depletion and was attributable to a kinetic process leading to progressive inhibition of the enzyme. The “slow-onset” absorbance curves could be fit using the equation At=vit+(vi−vf)(1−exp(−kt))/k+A0 where At is absorbance, vi is initial velocity, vf is final velocity, t is time in s, k is the rate of the slow onset process and A0 is absorbance of the sample at initial time. These fits are shown by the solid lines in FIG. 2 and FIG. 3. The rate constant for the slow phase could be obtained from the average value of k determined from the separate fits. The value of k for 1 was determined to be 0.0042±0.001 s^−1 and the value of k for 2 was determined to be 0.0083±0.002 s^−1. The parameter k is defined as kon in Scheme 5. [drawing 19]

human CD38 [4] = molecular target: T1, human CD38; test: CD38-catalyzed base exchange of 2 to 1 with nicotinamide, HPLC; type: biochemical; parameters: The soluble domain of human CD38 catalyzes the conversion of NAD^+ to cyclic-ADP-ribose; details: 75 μM 2, 1 μM CD38, nicotinamide, 19° C.
Protocol: Base-exchange reaction. […] These reactions were run separately in autosampler tubes held at 19° C. in a temperature regulated autosampler and assayed by multiinjection HPLC using 5 mM K2PO4H pH 5.0 and 2.5% MeOH as eluant. The quantity of 2 reacted and the quantity of 1 formed versus time was determined by integrations of the peaks for 1 and 2 with comparison to standards.

human CD38 [5] = molecular target: T1, human CD38; details: CD38 preincubated with inhibitor 2; saturating nicotinamide
Protocol: 10 mL CD38 (1 μM) in K2PO4H was incubated with 2 (10 μM) for 30 minutes at room temperature and subsequently placed on ice. […] To a two syringe Applied Photophysics spectrophotometer in fluorescence mode was added inhibited enzyme to one syringe and NGD^+ solution to the other. Fluorescence was used to monitor cGDPR formation and the total fluorescence curves fit using the activity recovery equation F(t)=vt+(b−v) (1−exp(−kt))/k+F0 where k is the observed rate constant, b is the initial rate, v is the final rate and F0 is the initial absorbance.
A stopped flow, two syringe fitted spectrophotometer was used to perform the experiments. The fluorescence of cGDPR was measured as a function of time to generate curves that contain an exponential and a linear phase prior to substrate exhaustion. These curves were fit to the equation Ft=vft+(vi−vf)(1−exp (−kt))/k+F0 as previously defined.

human CD38 [6] = molecular target: T1, human CD38; test: Radiochemical labeling of CD38 by [2'-3H] inhibitor (gel filtration, scintillation counting); type: binding; parameters: The soluble domain of human CD38 catalyzes the conversion of NAD^+ to cyclic-ADP-ribose; details: 9 μM inhibitor, 1.2 μM CD38 monomer, pH 7.5, 25° C.
Protocol: Radiochemical measurement of inhibitor binding. […] Inhibitor at 9 μM with specific radioactivity of 866 cpm/nmol, was incubated with 1.2 μM CD38 (monomer) in 1 mL 50 mM potassium phosphate (pH 7.5). The reactions were started by enzyme addition and quenched by freezing with a dry ice/acetone bath at 30, 60 90, 120, 250, 500, and 1000 s. Cooled (0° C.) gel filtration columns were used to separate protein with cooled (0° C.) 10 mM potassium phosphate as eluant. The frozen fraction were quickly thawed, applied to these columns and fractions collected in 1 mL volumes over the course of several minutes. Scintillation fluid (9 mL) was then added to each 1 mL fraction and samples counted. […] The observed radioactivity was fit using the equation A(t)=A0(1−exp(−kt))+B. where A0 is activity at reaction completion, k is the observed pseudo-first order rate constant and B is the activity of the blank.
Titration of Enzyme with [2′-^3H]Inhibitor. CD38 inactivation was accomplished using a radiolabeled inhibitor to assess inhibitor interactions with the enzyme independent from inhibition of the catalytic activity. This method allows the determination of the stoichiometry of covalent labeling, and detects cooperativity at multiple sites. […] (FIG. 8) within reasonable agreement with the rate constant for inactivation in kinetic assays of inhibition (kon=0.0042 s^−1 at 19° C.). […]

CD38 = molecular target: T2, CD38 (Homo sapiens, UniProt P28907); details: 37° C.; cited from earlier work
T2 sequence (P28907 1-300): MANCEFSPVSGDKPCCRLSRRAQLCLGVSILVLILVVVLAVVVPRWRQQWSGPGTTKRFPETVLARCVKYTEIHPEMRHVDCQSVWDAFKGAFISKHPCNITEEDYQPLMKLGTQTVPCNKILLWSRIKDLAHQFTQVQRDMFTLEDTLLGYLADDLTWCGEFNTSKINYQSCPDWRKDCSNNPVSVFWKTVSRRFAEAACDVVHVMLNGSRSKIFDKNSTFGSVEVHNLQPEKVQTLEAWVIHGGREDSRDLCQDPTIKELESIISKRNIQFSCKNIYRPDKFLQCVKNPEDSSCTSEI

Question: With NC(=O)c1ccc[n+]([C@H]2C[C@H](O)[C@@H](CO)O2)c1 [inhibitor 1, nicotinamide-2′-deoxyriboside] as the compound, how does the “time until 50% depleted from solution by hydrolysis” value [1] read?
Answer: Its value is 2 h.

Question: What about the “koff, rate constant of recovery from inhibition” value (human CD38 [2]) of the same compound?
Answer: The value was 1.5e-05 s⁻¹.

Question: What about the koff (human CD38 [2]) of the same compound?
Answer: Its koff is about 2e-05 s⁻¹.

Question: For Cc1cc(C(N)=O)c[n+](C2CC(O)C(CO)O2)c1 (single isomer, unassigned) [α isomer of 2], which “inhibition of CD38 conversion of NGD+ to cGDPR” value (“inhibition … to cGDPR” for short) (human CD38 [3]) is on record?
Answer: Its value is “did not inhibit”.

Question: Which results are given for Cc1cc(C(N)=O)c[n+]([C@H]2C[C@H](O)[C@@H](CO)O2)c1 [inhibitor 2, 5-methyl-nicotinamide-2′-deoxyriboside]?
Answer: time until 50% depleted from solution by hydrolysis [1]: 12 h; koff, rate constant of recovery from inhibition (human CD38 [2]): 2.5e-05 s⁻¹; koff (human CD38 [2]): ~2e-05 s⁻¹; kcat of base exchange (2 to 1) (human CD38 [4]): 0.007 s⁻¹

Question: For NC(=O)c1ccc[n+](C2CC(O)C(CO)O2)c1 (single isomer, unassigned) [α isomer of 1], which “inhibition … to cGDPR” value (human CD38 [3]) is on record?
Answer: Its value is “did not inhibit”.

Question: With NC(=O)c1cccnc1 [nicotinamide] as the compound, how does the “maximum rate of rescue (kbase)” value (human CD38 [5]) read?
Answer: Its value is 0.023 s⁻¹ and 0.024 s⁻¹.

Question: Which “inhibition … to cGDPR” value (human CD38 [3]) does the source give for OC[C@H]1O[C@@H]([n+]2ccccc2)C[C@@H]1O [inhibitor 3, pyridyl-2′-deoxyriboside] here?
Answer: Its value is “did not inhibit”.

Question: Which “rate constant of radiochemical labeling of CD38 (kchem)” value (human CD38 [6]) does the source give for [3H]C1[C@H]([n+]2cccc(C(N)=O)c2)O[C@H](CO)[C@H]1O (stereo partly shown) [[2′-^3H]-1, [2′-^3H]Nicotinamide deoxyriboside] here?
Answer: The value was 0.01 s⁻¹.

Question: With NC(=O)c1ccc[n+]([C@@H]2O[C@H](COP(=O)(O)O)[C@@H](O)[C@H]2O)c1 [NMN^+] as the compound, how does the “ratio of the rates of turnover of CD38 covalent intermediates, NMN+ versus ara-F-NMN+” value (CD38) read?
Answer: Its value is ~10^7.
